Data: ChEMBL document CHEMBL1201862, “PubChem BioAssay data set” (2004)
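Step 1: Grow cells in 96-well plates. Step 2: Expose to compound for 48 hours at 5 concentrations. Step 3: Interpolate endpoints linearly; if unreached, use highest concentration. Abbreviation: GI50, concentration required for 50% inhibition of growth.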 Active and inactive are the calls of the source. Rule as the data show it: active = GI50 up to about 1.1 µM and inactive = higher. Non-standard residues stand in square brackets, D forms with d. Residues, ends and D or L forms follow the SMILES beside them. ξ: configuration not given here. ξLac(3-iPr) = CC(C)CC(O)C(=O)O; NMeV = CN[CH](C(=O)O)C(C)C; NMeA = CN[CH](C)C(=O)O; βAla = NCCC(=O)O

Key:
Assay in all cases: NCI anticancer screen, dose series, 48 h
[1] = tested on: NCI-H23
[2] = tested on: KM-20L2
[3] = tested on: SW-620
[4] = tested on: HOP-62
[5] = tested on: SNB-75
[6] = tested on: Malme-3M
[7] = tested on: SK-OV-3
[8] = tested on: K562
[9] = tested on: MOLT-4
[10] = tested on: HL-60
[11] = tested on: NCI-H522
[12] = tested on: A549
[13] = tested on: NCI-H226
[14] = tested on: OVCAR-8
[15] = tested on: DMS-273
[16] = tested on: SK-MEL-2
[17] = tested on: COLO 205
[18] = tested on: ACHN
[19] = tested on: U-251
[20] = tested on: OVCAR-5
[21] = tested on: SF-268
[22] = tested on: UACC-257
[23] = tested on: HCC 2998
[24] = tested on: M19-MEL
[25] = tested on: HT-29
[26] = tested on: DLD-1
[27] = tested on: OVCAR-3
[28] = tested on: RPMI-8226
[29] = tested on: NCI-H460
[30] = tested on: RXF 393
[31] = tested on: TK-10
[32] = tested on: SK-MEL-28
[33] = tested on: IGROV-1
[34] = tested on: UACC-62
[35] = tested on: HCT-15
[36] = tested on: SN12C
[37] = tested on: SF-295
[38] = tested on: 786-0
[39] = tested on: SNB-19
[40] = tested on: SF-539
[41] = tested on: LOX IMVI
[42] = tested on: M14
[43] = tested on: UO-31
[44] = tested on: DMS-114
[45] = tested on: HCT-116
[46] = tested on: KM12
[47] = tested on: SK-MEL-5
[48] = tested on: SNB-78
[49] = tested on: EKVX
[50] = tested on: CAKI-1
[51] = tested on: A498
[52] = tested on: CCRF-CEM
[53] = tested on: LXFL 529
[54] = tested on: SR
[55] = tested on: HOP-92
[56] = tested on: OVCAR-4
[57] = tested on: DU-145
[58] = tested on: MDA-N
[59] = tested on: BT-549
[60] = tested on: MDA-MB-435
[61] = tested on: PC-3
[62] = tested on: Hs-578T
[63] = tested on: MDA-MB-231
[64] = tested on: NCI/ADR-RES
[65] = tested on: MCF7
[66] = tested on: T47D

Measured: GI50

COc1ccc2c(c1)Oc1cc(O)ccc1[C@@H]2c1ccccc1C(=O)NC(C)c1ccccc1 (stereo partly drawn)
inactive: [1] 16.1 µM | [2] 14.9 µM | [3] 19 µM | [4] 15.3 µM | [5] 14.7 µM | [6] 15 µM | [7] 23.1 µM | [8] 14.8 µM | [9] 5.73 µM | [10] 11.3 µM | [11] 14.4 µM | [12] 17.7 µM | [13] 18.3 µM | [14] 17.6 µM | [15] 14.3 µM | [16] 18.7 µM | [17] 16.4 µM | [18] 15.6 µM | [19] 15 µM | [20] 16.4 µM | [21] 19.1 µM | [22] 14.8 µM | [23] 11.9 µM | [24] 15.9 µM | [25] 15.3 µM | [26] 13.9 µM | [27] 15.9 µM | [28] 6.49 µM | [29] 12.2 µM | [30] 13.1 µM | [31] 23.7 µM | [32] 15.4 µM | [33] 18.2 µM | [34] 13.6 µM | [36] 14.6 µM | [37] 13 µM | [38] 13.7 µM | [39] 15.6 µM | [40] 16.3 µM | [41] 15.9 µM | [42] 12.2 µM | [43] 13.5 µM | [44] 12.7 µM | [45] 12.2 µM | [46] 13.4 µM | [47] 17.7 µM | [48] 13.3 µM | [49] 13.3 µM | [50] 20.6 µM | [51] 17.7 µM | [52] 15.8 µM | [53] 14.2 µM
13.7 µM: [35]

CCCN(CCC)C(=O)c1c([N+](=O)[O-])cc(C(F)(F)F)cc1[N+](=O)[O-]
inactive: [54] 51.3 µM | [1] 25.4 µM | [2] 22.6 µM | [3] 27.7 µM | [4] > 100 µM | [5] > 100 µM | [7] > 100 µM | [8] 28.3 µM | [9] 52.6 µM | [10] 20 µM | [11] 23.2 µM | [12] 32.5 µM | [13] 19.3 µM | [14] 39.1 µM | [15] 35.4 µM | [16] 39.4 µM | [17] 15.4 µM | [18] 65.9 µM | [19] 64.9 µM | [20] 65.5 µM | [21] > 100 µM | [22] > 10 µM | [24] 13.7 µM | [25] 32.5 µM | [27] 10.7 µM | [28] 47.6 µM | [29] 37 µM | [30] 26.2 µM | [31] > 100 µM | [32] > 100 µM | [33] 58.2 µM | [34] 17.9 µM | [36] 40.9 µM | [37] 34.4 µM | [38] 68.2 µM | [39] 68.4 µM | [40] 41.6 µM | [41] 35.7 µM | [42] 22.5 µM | [43] > 100 µM | [45] 30.5 µM | [46] 46.1 µM | [48] 35.2 µM | [49] 52.5 µM | [50] 60.7 µM | [55] 34.5 µM | [56] 14.9 µM | [51] 75.7 µM | [52] 62.4 µM | [53] 30.4 µM
27 µM: [35]

CCC(C)C1NC(=O)C2CCCN2C(=O)C(CC(C)C)OC(=O)CCNC(=O)C(C)N(C)C(=O)C(C(C)C)N(C)C1=O (stereo not drawn) (cyclo([ξLac(3-iPr)]PI[NMeV][NMeA][βAla]); configuration not given here)
active: [54] 0.766 µM | [10] 0.593 µM | [41] 1.11 µM | [52] 0.736 µM
inactive: [1] 9.84 µM | [3] 3.73 µM | [4] 2.77 µM | [5] 15.5 µM | [6] 6.55 µM | [7] 20.6 µM | [57] 4.05 µM | [58] 2.61 µM | [8] 3.16 µM | [9] 1.83 µM | [11] 6.05 µM | [59] > 26.1 µM | [12] 4.82 µM | [13] > 21.5 µM | [14] 3.48 µM | [16] 2.42 µM | [17] 3.61 µM | [18] 4.58 µM | [60] 2.43 µM | [19] 10.3 µM | [20] 4.83 µM | [21] 6 µM | [22] 6.32 µM | [23] 2.13 µM | [25] 1.32 µM | [61] 1.79 µM | [62] 23.2 µM | [27] 6.7 µM | [28] 1.29 µM | [63] 6.24 µM | [29] 1.19 µM | [30] 3.83 µM | [31] 23.2 µM | [32] 36.1 µM | [33] 5.83 µM | [34] 2.21 µM | [36] 6.84 µM | [37] 2.5 µM | [38] 2.09 µM | [64] 16.1 µM | [39] 49 µM | [40] 7.1 µM | [42] 1.91 µM | [43] 6.84 µM | [65] 2.64 µM | [45] 2.2 µM | [46] 3.44 µM | [47] 1.21 µM | [49] 10.2 µM | [50] 6.95 µM | [55] 17.9 µM | [56] > 50.7 µM | [51] 23.9 µM | [66] 4.68 µM
4.57 µM: [35]
